Assay results from patent publication US20070269529A1, “Method For Treating Plants And Plant Parts” (priority 2003, published 2007).
Each block holds one molecule with its values, some of them ahead of it.

Tests used:
Format in all cases: cell-based, Raphanus sativus L. cv. Cherry-Belle
PAL (EC 4.3.1.5) = assay: PAL activity in radish cotyledons; details: 20 mg/L, FIG. 1
Method: (§1) Seeds of Raphanus sativus L. cv. Cherry-Belle were germinated in darkness at 24° C. for 40 h in Petri dishes containing filter paper wetted with distilled water. The smaller of the two cotyledons was excised, the fresh weight determined, and 10 cotyledons placed adaxial side down on filter paper in Petri dishes containing 7.5 mL of phosphate buffered saline (PBS, 2 mM, pH 6.0) and the compounds to be tested at 20 mg/L. Cotyledons were then incubated under continuous illumination up to 72 h at 24° C. or 25° C. and the increase in fresh weight determined. Chlorophyll content was determined after extraction of tissue into 80% EtOH (containing butylated hydroxytoluene 10 mg/L) and quantified using the equations Chl a=(13.95A663)-(6.88A647) and Chl b=(24.96A652)-(7.32A663) as described by Lichtenthaler, H K (Methods in Enzymology 148:350-382, 1987). IAA oxidase, PAL, PPO and POD activity were determined as described by Kato, M et al. (Plant and Cell Physiology 41:440-447, 2000) and Li, X et al. (Plant Science 164:549-556, 2003).
(§2) PAL (EC 4.3.1.5) activity: Ethylene is produced by plants in response to a variety of stresses, including wounding (Kato, M et al. Plant and Cell Physiology 41:440-447, 2000). Assuming the stress is of sufficient intensity and duration plants will also begin to show signs of senescence. […]

PPO (EC 1.14.18.1) = assay: PPO activity in radish cotyledons; details: 20 mg/L, FIG. 6
Method: as §1
PPO (EC 1.14.18.1): Like PAL and POD, PPO is an important enzyme catalyzing lignin biosynthesis in plants.

radish cotyledons [1] = assay: Radish cotyledon expansion bioassay (fresh weight, chlorophyll); details: compounds 20 mg/L, 72 h, 25° C.; for Change in fresh weight: continuous illumination
Method: as §1
In order to remove variability from the bioassay—due presumably to temporal changes in the concentration of root-derived cytokinins in cotyledons—the bioassay procedure was modified to routinely include 0.2 mg/L (approximately 1 μM) kinetin in the background.
Cotyledon expansion growth: The effect of soy EML in the presence of kinetin on expansion growth was investigated and the results are shown in Table 1.

radish cotyledons [2] = assay: Protein content of radish cotyledons; details: 20 mg/L, FIG. 1
Method: as §1, §2

POD (EC 1.11.1.7) = assay: POD activity in radish cotyledons; details: onset of organ maturity, FIG. 4
Method: as §1
To determine the effect of EML on induction of POD, activity of this enzyme was monitored during the 72 h incubation period after exposure to soy EML (20 mg/l) and the results are shown in FIG. 4. […] Highest POD activity was measured in control and ACC-treated cotyledons.

IAA oxidase = IAA oxidase activity in radish cotyledons; details: 20 mg/L, FIG. 7
Method: as §1
IAA Oxidase activity: IAA homeostasis is an important process contributing to correlative control of plant growth and development. Generally, IAA is synthesized in the apices and in shoots; apically derived IAA is basipetally transported. […]

Molecule: NC1(C(=O)O)CC1 [ACC, 1-amminocyclopropane-1-carboxylic acid]
PAL activity (PAL (EC 4.3.1.5)): progressively delayed
PPO activity (PPO (EC 1.14.18.1)): appeared to suppress PPO activity
% of control (change in fresh weight) (radish cotyledons [1]): 25%
Chlorophyll a + b (mg/g FW) (radish cotyledons [1]): 5.40 mg/g FW
Chlorophyll a + b (μg/cotyledon) (radish cotyledons [1]): 35.90 ± 6.13 μg/cotyledon
Chlorophyll a/b (radish cotyledons [1]): 0.83
Change in fresh weight (radish cotyledons [1]): 2.56 ± 0.39 mg
protein content (radish cotyledons [2]): delayed and reached a maximum only 24 h after exposure to light
POD activity at 48 and 72 h (POD (EC 1.11.1.7)): Highest

Molecule: c1coc(CNc2ncnc3[nH]cnc23)c1 [Kinetin, kinetin]
PAL activity (PAL (EC 4.3.1.5)): progressively delayed
PPO activity (PPO (EC 1.14.18.1)): appeared to increase gradually over time
activity at 20 µg/mL (radish cotyledons [1]; Raphanus sativus, read-out: % of control (change in fresh weight)): 153%
Chlorophyll a + b (mg/g FW) (radish cotyledons [1]): 2.17 mg/g FW
Chlorophyll a + b (μg/cotyledon) (radish cotyledons [1]): 54.10 ± 7.03 μg/cotyledon
Chlorophyll a/b (radish cotyledons [1]): 0.87
Change in fresh weight (radish cotyledons [1]): 15.49 ± 1.81 mg
protein content (radish cotyledons [2]): rapid but transient increase
POD activity at 48 and 72 h (POD (EC 1.11.1.7)): lowest

IAA oxidase activity (IAA oxidase): no apparent effect
Molecule: lysophosphatidylethanolamine [LPE]
PPO activity (PPO (EC 1.14.18.1)): did not induce PPO activity
